Experiments:
[1] = system: patients with hypercholesterolemia at high CV risk not adequately controlled with atorvastatin (20 mg or 40 mg); test: Example 2: randomized, double-blind trial, lipid efficacy of mAb316P add-on to atorvastatin vs EZE add-on, atorvastatin dose doubling or switch to rosuvastatin; format: in vivo, human
In short: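 Patients on atorvastatin 20 or 40 mg randomized to mAb316P 75 mg SC Q2W (raised to 150 mg from week 12 per CV risk) or blinded comparators, over 24 weeks. Endpoint: percent change in calculated LDL-C (Friedewald; beta quantification if TG >400 mg/dL) from baseline to week 24.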

[2] = as reported elsewhere; cited from earlier work
[3] = system: patients with hypercholesterolemia at high CV risk not adequately controlled with rosuvastatin (10 mg or 20 mg); test: Example 3: safety, treatment-emergent adverse events in pooled treatment groups; conditions: Safety Population; pooled treatment groups

SMILES: CC(C)c1nc(N(C)S(C)(=O)=O)nc(-c2ccc(F)cc2)c1/C=C/[C@@H](O)C[C@@H](O)CC(=O)O [rosuvastatin, reference compound]
- LDL-C W24 % change from baseline, LS mean (SE) ([1]; ITT population, week 24, treatment arm as labelled): −21.4%
- Calculated LDL-C LS mean (SE), % Change from Baseline ([1]; Week 4): −22.4 (2.8) %
- Calculated LDL-C LS mean (SE), Change from Baseline ([1]; Week 4): −25.2 (3.0)
- Calculated LDL-C LS mean (SE), Value (mg/dL) ([1]; Week 4): 83.5 (3.0) mg/dL
- Calculated LDL-C LS mean (SE), % Change from Baseline ([1]; Week 8): −21.0 (3.2) %
- Calculated LDL-C LS mean (SE), Change from Baseline ([1]; Week 8): −22.9 (3.3)
- Calculated LDL-C LS mean (SE), Value (mg/dL) ([1]; Week 8): 85.8 (3.3) mg/dL
- Calculated LDL-C LS mean (SE), % Change from Baseline ([1]; Week 12): −23.3 (3.2) %
- Calculated LDL-C LS mean (SE), Change from Baseline ([1]; Week 12): −26.3 (3.5)
- Calculated LDL-C LS mean (SE), Value (mg/dL) ([1]; Week 12): 82.4 (3.5) mg/dL
- Calculated LDL-C LS mean (SE), % Change from Baseline ([1]; Week 16): −15.7 (3.5) %
- Calculated LDL-C LS mean (SE), Change from Baseline ([1]; Week 16): −18.7 (3.8)
- Calculated LDL-C LS mean (SE), Value (mg/dL) ([1]; Week 16): 90.0 (3.8) mg/dL
- Calculated LDL-C LS mean (SE), % Change from Baseline ([1]; Week 24): −21.4 (4.2) %
- Calculated LDL-C LS mean (SE), Change from Baseline ([1]; Week 24): −23.1 (4.5)
- Calculated LDL-C LS mean (SE), Value (mg/dL) ([1]; Week 24): 85.6 (4.5) mg/dL
- patients achieving the more stringent LDL-C goal of <70 mg/dL ([1]; Week 24, calculated LDL-C, across atorvastatin 20 mg and 40 mg regimens): 42.2%
- reduced LDL-C levels by ([1]; atorvastatin 40 mg regimen, week 24, add-on mAb316P, add-on ezetimibe, doubling of atorvastatin dose or switch to rosuvastatin 40 mg): 21.4%
- Proportion of Patients Reaching LDL-C goal (%) ([1]; week 24, calculated LDL-C <70 mg/dL very high risk or <100 mg/dL high risk, combined estimate): 62.2%
- reduction in LDL-C levels when switching from atorvastatin 40 mg per day to rosuvastatin 40 mg per day [2]: ~8%
- General Allergic TEAEs [3]: 7 (6.9%) patients (%)
- SOC General disorders and administration site conditions [3]: 10 (9.9%) patients (%)
- SOC Psychiatric disorders [3]: 3 (3.0%) patients (%)
- SOC Respiratory, thoracic and mediastinal disorders [3]: 5 (5.0%) patients (%)
- SOC Skin and subcutaneous tissue disorders [3]: 6 (5.9%) patients (%)
- TEAEs [3]: 68 (67.3%) patients (%)
- Treatment-emergent SAEs [3]: 8 (7.9%) patients (%)
- Treatment-emergent cardiovascular events adjudicated positively [3]: 1 (1.0%) patients (%)
- Treatment-emergent neurocognitive disorders [3]: 2 (2.0%) patients (%)
- Treatment-emergent neurologic disorders [3]: 2 (2.0%) patients (%)
- cough [3]: 3 (3.0%) patients (%)
- discontinued study treatment early due to a treatment emergent adverse event [3]: 5 (5.0%) patients (%)
- injection site reactions (ISRs) [3]: 2 (2.0%) patients (%)
